The experiment has as its target T1, sEH (Mus musculus, UniProt P34914).
T1 construct: pilot in vivo study of the compound in male wild-type C57BL6/J mice; from tissue; host or cells: male wild-type C57BL/6J mice, in vivo; read-out in plasma
T1 sequence (P34914 1-554): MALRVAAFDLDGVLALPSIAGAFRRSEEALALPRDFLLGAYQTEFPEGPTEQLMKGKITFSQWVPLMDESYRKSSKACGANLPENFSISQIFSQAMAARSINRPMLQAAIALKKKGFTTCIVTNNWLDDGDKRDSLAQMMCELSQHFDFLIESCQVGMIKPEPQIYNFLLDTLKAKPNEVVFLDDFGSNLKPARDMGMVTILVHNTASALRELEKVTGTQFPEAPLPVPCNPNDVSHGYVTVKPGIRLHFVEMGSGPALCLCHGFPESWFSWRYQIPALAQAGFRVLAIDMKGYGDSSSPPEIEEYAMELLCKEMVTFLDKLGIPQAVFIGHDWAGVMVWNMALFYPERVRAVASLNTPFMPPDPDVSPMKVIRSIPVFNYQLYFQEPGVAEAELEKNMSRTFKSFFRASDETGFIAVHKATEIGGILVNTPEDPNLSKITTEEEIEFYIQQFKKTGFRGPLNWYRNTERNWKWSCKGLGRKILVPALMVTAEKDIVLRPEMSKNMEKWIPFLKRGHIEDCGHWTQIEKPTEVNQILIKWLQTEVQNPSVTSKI
Description: EET/DHET ratio in mouse plasma. The note with it: mice, 10 mg/kg p.o., 8 h post dose. In kind it is in vivo. How it is done:
To record a pharmacokinetic profile and to evaluate pharmacodynamic data concerning FXR activation and sEH inhibition in vivo, six mice received a single dose of 57 (p.o., 10 mg/kg body weight). Three additional animals served as vehicle control.
To evaluate pharmacodynamic effects of 57, mouse plasma was analyzed for EET/DHET ratio, and FXR target gene expression was determined in mouse livers 8 hours post application (FIG. 5B). […] Expression of the PPARγ target gene fatty acid transport protein (FATP) was not affected by 57 in vivo.
Blood and liver sampling: At six time points (15 min, 30 min, 60 min, 120 min, 240 min and 480 min after application of 57), blood (20 μl) of the six restrained and conscious mice was obtained from the lateral tail vein. For the last time-point (480 min), mice were anesthetized under isoflurane and blood (˜500 μl) was obtained by retro-orbital puncture. A part of the blood was centrifuged (6000 rpm, 10 min, +4° C.) to obtain plasma for quantification of EET/DHET ratio and stored at −80° C. until further evaluation. […]
EET/DHET ratio analysis from mouse plasma samples (Determination of Epoxyeicosatrienoicacids (EETs) and their metabolites Dihydroxyepoxyeicosatrienoicacids (DHETs) by LCMS/MS): 8.9-EET, 11.12-EET and their dehydro-metabolites content of the extracted samples were analyzed employing liquid chromatography tandem mass spectroscopy (LC-MS/MS). […]

The structures appear in SMILES notation.

Here are results for 1 compound from patent publication US20200172473A1, “DUAL MODULATORS OF FARNESOID X RECEPTOR AND SOLUBLE EPOXIDE HYDROLASE” (JOHANN WOLFGANG GOETHE-UNIVERSITÄT FRANKFURT AM MAIN, priority 2017, published 2020).

Turning to `CC(C)(C)c1ccc(C(=O)NCc2ccc(NS(C)(=O)=O)cc2Cl)cc1` [compound 57, 4-(tert-Butyl)-N-(2-chloro-4-(methylsulfonamido)benzyl)benzamide], where the note is “vehicle 0.15±0.01”, the “11,12-EET/11,12-DHET ratio in plasma” value is given as 0.25±0.03. Moreover, the “8,9-EET/8,9-DHET ratio in plasma” value (vehicle 0.40±0.03) is recorded as 0.63±0.03.
